Test results taken from patent US20130023550A1, “PHARMACEUTICAL COMPOSITIONS AND METHODS OF MAKING SAME” (GLAXO WELLCOME MANUFACTURING PTE, LTD, priority 2010, published 2013).
Converted amounts (≈) assume the structure as drawn. Where two headings read alike, the source gives them in different places.

Assays:
Assay type in all cases: physicochemical
[1] = Binding constant Kb by fluorescence titration
Excerpt: The binding constant between a drug substance and complexing agent can be determined using spectroscopic techniques as outlined by Connors and references therein (Kenneth A. Connors: “Binding Constants”, Wiley-Interscience; 1. edition (April 1987)).
The simplified equilibrium for complexation between pazopanib (034 in Equation 1 shown below) drug substance and13-cyclodextrin sulfobutylether (e.g., Captisol® from Cydex Pharmaceuticals, Inc., Lenexa, Kans.) has been shown as Equation 1, where Kd is the dissociation constant and Kb is the binding constant, 034(s) is solid precipitate for pazopanib, 034(aq) is the aqueous concentration of unbound pazopanib (free state without complexation), Captisol(aq) is the difference between the initial Captisol concentration and the concentration of Captisol in the complexed state with drug substance and pazopanib. […] is the concentration of the complex between pazopanib and 034·Captisol (complexed state).
A titration experiment is performed using pazopanib (approximately 0.05 mg/ml, 10^-4M) solution by varying the concentration of β-cyclodextrin sulfobutylether solution and measuring the fluorescence intensity (excitation at 342 nm, emission at 375 nm) of the resulting solutions. Initial Captisol concentration are chosen to describe the entire titration curve appropriately and to prevent nucleation and precipitation of pazopanib in the solution. […]
The measured Fluorescence intensity is directly related to the concentration of the complexed state 034·Captisol(aq) since uncomplexed pazopanib 034(aq) and Captisol Captisol(aq) have negligible fluorescence yield. The measured fluorescence intensities are fitted using a non-linear simplex fitting routine to determine the value of the binding constant Kb. The Fluorescence intensities are plotted as a function of β-cyclodextrin sulfobutylether concentration according to Benesi and Hildebrandt to determine the binding stoichiometry. […]
Varian Cary Eclipse Fluorescence spectrometer (SN: EL05043801) with a lcm cuvette and orthogonal detection geometry or equivalent. […]

[2] = Solubility of pazopanib as a function of pH in phosphate buffer; conditions: for solubility at 5 days: phosphate buffer, 25 °C, thermodynamic from solid
Experimental: • 1) Prep 25 mM phosphate buffer (using monobasic Sodium Phosphate, monohydrate), adjust the buffer solution to different target pH using 1N NaOH/HCl. • 2) Add excessive pazopanib free base to the above solutions (˜20 mg free base per 10 mL buffer solution), vortex the solutions, and mix well. […] Equilibrate the solutions for 5 days with agitation. • 4) After 5 days, measure the pH of the solubility solution immediately, and record the pH, and filter the solution into a test tube using a 0.22um PVDF filter. • 5) Dilute the solution by 1:1 (v/v) with 50:50:0.1 water:acetonitrile:TFA (v/v/v) diluent, and mix well. • 6) The solubility of the solutions is analyzed by HPLC at the detection wavelength of 268 nm.
Mobile Phase A: 100:0.1 (v/v) Water:TFA Mobile Phase B: 100:0.1 (v/v) Acetonitrile:TFA Column: Phenomenex Develosil RPAqueous-3, C-30, 3 um, 150 mm×4.6 mm Column temperature: 35° C. Flow rate: Isocratic at 1.0 mL/min, A/B=60/40 Detector wavelength: 268 nm Injection volume: 10 μ L Total run time: 4 minutes

[3] = Calculation of cyclodextrin utility number UCD; conditions: for K: conservative value used for UCD calculations
Excerpt: The cyclodextrin utility number, UCD, is a dimensionless number used to assess the feasibility of using cyclodextrin in dosage forms. UCD is a lumped parameter consisting of the dose of the drug, the workable amount of CD, the binding constant, and the drug solubility in the absence of CDs. UCD can be used to predict the solubility of ionizable drugs showing a synergistic increase in solubility due to ionization and complexation. See, Rao, V. M., Stella, V. J., J Pharm Sci, 92, 5 927, May 2003. UCD is calculated using the following equation:
UCD=(KSo/1+KSo)(MCD/MD)(MWD/MWCD)
where, mD is dose of drug; mCD is dose of cyclodextrin; MWD is molecular weight drug; MWCD is molecular weight cyclodextrin; and Ko is binding constant.
UCD=(KSo/1+KSo)(mCD/mD)(MWD/MWCD)
Binding constant, K, as described in Example 4 above.
Solubility, So, as described in Example 5 above. from Rao, V. M., Stella, V. J., J Pharm Sci, 92, 5 927, May 2003.

[4] = Osmolality contribution of Captisol

Compound: Cc1ccc(Nc2nccc(N(C)c3ccc4c(C)n(C)nc4c3)n2)cc1S(N)(=O)=O [pazopanib]
- binding constant, Kb ([1]; pH of 4, temperature of 40° C.): 9763 mol⁻¹
- binding constant, Kb ([1]; pH of 5, temperature of 25° C.): 9130 mol⁻¹
- binding constant of pazopanib, K ([1]; with modified cyclodextrin such as Captisol): approximately 10,000
- So ([2]; pH 3.5): 4.57e-05 mol/L
- solubility in phosphate buffer ([2]; pH 3.5, 25° C.): ~20 µg/mL (≈ 45.7 µM)
- So ([2]; pH 4.0): 2.38e-06 mol/L
- solubility in phosphate buffer ([2]; pH 4.0, 25° C.): ~1.043 µg/mL (≈ 2.38 µM)
- solubility in phosphate buffer (molar value) ([2]; pH 4.0, 25° C.): ~2.38×10^−6
- solubility in phosphate buffer ([2]; pH 4.25, 25° C.): ~0.534 µg/mL (≈ 1.22 µM)
- solubility, So ([2]; pH 4.25, 25° C.): ~1.22 µM (≈ 0.534 µg/mL)
- solubility in phosphate buffer ([2]; pH 4.5, 25° C.): ~0.025 µg/mL (≈ 0.0571 µM)
- solubility, So ([2]; pH 4.5, 25° C.): ~0.0571 µM (≈ 0.025 µg/mL)
- solubility, So ([2]; pH 5.0, 25° C.): 0.0137 µM (≈ 0.00599 µg/mL)
- solubility at 5 days ([2]; pH 3.5, aqueous buffer, pH 3.5, 25° C., read-out: solubility in phosphate buffer): 20 µg/mL
- solubility at 5 days ([2]; pH 3.5, aqueous buffer, pH 3.5, 25° C., read-out: solubility in phosphate buffer (molar value)): 45.7 µM
- solubility at 5 days ([2]; pH 4, aqueous buffer, pH 4.0, 25° C., read-out: solubility in phosphate buffer): 1.04 µg/mL
- solubility at 5 days ([2]; pH 4, aqueous buffer, pH 4.0, 25° C., read-out: solubility in phosphate buffer (molar value)): 2.38 µM
- solubility at 5 days ([2]; pH 4.25, aqueous buffer, pH 4.25, 25° C., read-out: solubility in phosphate buffer): 0.534 µg/mL
- solubility at 5 days ([2]; pH 4.25, aqueous buffer, pH 4.25, 25° C., read-out: solubility, So): 1.22 µM
- solubility at 5 days ([2]; pH 4.5, aqueous buffer, pH 4.5, 25° C., read-out: solubility in phosphate buffer): 0.025 µg/mL
- solubility at 5 days ([2]; pH 4.5, aqueous buffer, pH 4.5, 25° C., read-out: solubility, So): 0.0571 µM
- (KSo)/(1 + KSo) ([3]; pH 3.5): 0.314
- K ([3]; pH 3.5): 10000 L/mol
- (KSo)/(1 + KSo) ([3]; pH 4.0): 0.023
- K ([3]; pH 4.0): 10000 L/mol
- (KSo)/(1 + KSo) ([3]; pH 4.25): 0.012
- K ([3]; pH 4.25): 10000 L/mol
- (KSo)/(1 + KSo) ([3]; pH 4.5): 0.0006
- K ([3]; pH 4.5): 10000 L/mol
- (KSo)/(1 + KSo) ([3]; pH 5.0): 0.0001
- K ([3]; pH 5.0): 10000 L/mol

Compound: β-cyclodextrin sulfobutylether [Captisol]
- Osmolality (mOsm) ([4]; Captisol 2 % (w/v)): 20 mOsm
- Osmolality (mOsm) ([4]; Captisol 3 % (w/v)): 50 mOsm
- Osmolality (mOsm) ([4]; Captisol 4 % (w/v)): 80 mOsm
- Osmolality (mOsm) ([4]; Captisol 5 % (w/v)): 110 mOsm
- Osmolality (mOsm) ([4]; Captisol 6 % (w/v)): 140 mOsm
- Osmolality (mOsm) ([4]; Captisol 7 % (w/v)): 170 mOsm
- Osmolality (mOsm) ([4]; Captisol 8 % (w/v)): 201 mOsm
- Osmolality (mOsm) ([4]; Captisol 9 % (w/v)): 231 mOsm
- Osmolality (mOsm) ([4]; Captisol 10 % (w/v)): 261 mOsm
- Osmolality (mOsm) ([4]; Captisol 11 % (w/v)): 291 mOsm
- Osmolality (mOsm) ([4]; Captisol 12 % (w/v)): 321 mOsm
- Osmolality (mOsm) ([4]; Captisol 13 % (w/v)): 351 mOsm
